# According to paper PMC4537050, “A long pentraxin-3-derived pentapeptide for the therapy of FGF8b-driven steroid hormone-regulated cancers” (Oncotarget, 2015):
# Key:
# [1] = biological target: T1, HSPG/FGF8b/FGFR1 ternary complexes (Homo sapiens, UniProt P55075); test: HSPG/FGF8b/FGFR1 mediated cell-cell adhesion assay; assay type: cell-based; settings: 30 ng/ml FGF8b, increasing peptide concentrations
# T1 construct: purchased PeproTech; host or cells: FGF8b was added to A745-CHO-flg-1A-luc cells (FGFR1 IIIc transfected) on a glutaraldehyde-fixed CHO-K1 monolayer (endogenous HSPGs)
# T1 sequence (P55075 23-215 isoform P55075-3 limits assumed): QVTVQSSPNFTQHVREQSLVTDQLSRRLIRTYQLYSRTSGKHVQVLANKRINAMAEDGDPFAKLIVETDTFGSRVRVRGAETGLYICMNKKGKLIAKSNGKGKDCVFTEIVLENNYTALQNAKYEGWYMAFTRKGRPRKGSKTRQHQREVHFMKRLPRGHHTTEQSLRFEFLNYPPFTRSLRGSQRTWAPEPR
# Method: This assay was performed as described with minor modifications. Briefly, wild-type CHO-K1 cells were seeded in 24-well plates at 150000 cells/cm^2. After 24 h, cell monolayers were washed with PBS and incubated with 3% glutaraldehyde in PBS for 2 h at 4°C. Fixation was stopped with 0.1 M glycine and cells were washed extensively with PBS. Then, A745-CHO-flg-1A-luc cells (50000 cells/cm^2) were added to CHO-K1 monolayers in serum-free medium plus 10 mM EDTA with or without 30 ng/ml FGF8b in the absence or presence of increasing concentrations of the ARPCA or ARPVA peptides. After 2 h of incubation at 37°C, unattached cells were removed by washing twice with PBS, and A745-CHO-flg-1A-luc bound to the CHO-K1 monolayer were solubilized and luciferase activity was quantified. All experiments were performed in triplicate.
# [2] = biological target: T2, FGF8b (Homo sapiens, UniProt P55075); test: ARPCA-FGF8 interaction by 2D 1H-13C HSQC NMR titration; assay type: binding; set-up: purchased ASLA (Riga, Latvia); settings: 190 μM ARPCA, FGF8b:ARPCA 0.5:1 and 1:1, intermediate to fast exchange
# T2 sequence (P55075 23-215 isoform P55075-3 limits assumed): T1 sequence (P55075 23-215 isoform P55075-3 limits assumed)
# Method: NMR experiments were collected on samples containing 190 μM of ARPCA, dissolved in 50 mM potassium phosphate buffer pH 6.7 (90% H2O/10% D2O), 2.5 mM arginine, 10mM NaCl in the presence of variable concentrations of FGF8 corresponding to 1:0, 1:0.5, and 1:1 ARPCA:FGF8 ratios.
# 2D 1H-13C HSQC spectra were recorded with a sweep width of 10 ppm and 100 ppm.2k × 128 data points were used in proton and carbon dimensions, respectively. Data, acquired and processed using Topspin (Bruker Biospin), were apodized with a squared sinebell shifted by 90° and polynomial baseline correction. All NMR spectra were recorded at 298 K with a Bruker DMX spectrometer operating at 600 MHz.
substance,measurement,setting,value
"Ac-ARPCA-NH2 [ARPCA, Ac-ARPCA-NH2]",inhibitory activity on FGF8b-mediated cell-cell adhesion (in words),[1],dose-dependent inhibitory activity
same,binding to FGF8b indicated by NMR titration,[2],micromolar range
